Assay results taken from patent US20090232919A1 (priority 2006, published 2009).
Marks after values point to notes of the source that are not given here.

How the values were obtained:
Assay type in all cases: in vivo, Male Sprague-Dawley rats
[1] = test system: GSH-Depleted Liver Injury in Rat Model; assay: Effect on GSH-depleted (BSO) acetaminophen liver injury in rat model; settings: for necrosis of hepatic cell: orally administrated
Method: (§1) Male Sprague-Dawley rats (Samtako Co. Korea) weighing 140-160 g were used in the experiment and were allowed to access to feed (Harlan, teklan, USA) and drinking water. All animals were maintained in a controlled environment with temperatures at 22±2° C. and humidity at 55±5% with 12 hours of light and dark cycles for at least one week prior to use.
3 hours after the end of treatment, 2 mM/kg of BSO (buthionine sulfoximine) was intraperitoneally administrated to the rats to deplete GSH (glutathione) level of the rats. 1 hr after the treatment, the acetaminophen solution prepared in Reference Example (1.2 g/kg) was orally administrated into the rats to induce hepatotoxicity.
24 hours after the inducement, the survival rate of the rats was determined and the abdominal cavity was excised to deliver liver organ to test the effect of the inventive extract and compound obtained in Examples on liver injury.

[2] = test system: Acetaminophen-Induced Liver Injury in Rat Model; assay: Intravenously administrated extract and compound on acetaminophen-induced liver injury in rat model
Method: as §1
3 hours after the end of treatment, the acetaminophen solution prepared in Reference Example (1.2 g/kg) was orally administrated into the rats to induce hepatotoxicity.
24 hours after the inducement, the abdominal cavity was excised to deliver liver organ and blood to test the effect of the inventive extract and compound obtained in Examples on liver injury.

[3] = test system: acetaminophen-induced hepatotoxicity in rats; assay: Treating effect on liver injury (dosing after acetaminophen); settings: 50 mg/kg orally from 1 hour after acetaminophen, versus PEG400 (40%) negative control; FIG. 7
Method: as §1
The acetaminophen solution prepared in Reference Example (1.2 g/kg) was orally administrated into the rats to induce hepatotoxicity. […] All the testing rats had been starved for 24 hours prior to acetaminophen-administration.
24 hours after the inducement, the abdominal cavity was excised to deliver liver organ to test the effect of the inventive compound obtained in Examples on liver injury.

[4] = test system: Acetaminophen-Induced Liver Injury in Rat Model; assay: Orally administrated extract and compound on acetaminophen-induced liver injury in rat model; settings: for increased activity of blood ALT induced by acetaminophen / increased activity of blood LDH induced by acetaminophen: once a day for 4 days; for central necrosis and inflammation of liver (histo-pathological examination): oral, acetaminophen-induced, FIG. 3
Method: as §1
24 hours after the end of treatment, the acetaminophen solution prepared in Reference Example (1.2 g/kg) was orally administrated into the rats to induce hepatotoxicity.
24 hours after the treatment, the abdominal cavity was excised to deliver liver organ and blood to test the effect of the inventive extract and compound obtained in Examples on liver injury.
The effect on the indicators of liver injury known in the art, i.e., ALT (R. Rej, Clin. Chem., 24, pp 1971-1979, 1978) and LDH (S. Sherlock et al., Blackwell Science, London, p 23, 2002) activity in rat blood was determined.
The histo-pathological examination on liver organ was performed to determine the effect of inventive extract and compound on the necrosis and inflammation of liver induced by acetaminophen.

[5] = GSH-depleted (BSO) + acetaminophen, FIG. 6b
[6] = intravenous dose of 5 mg/kg and 15 mg/kg, FIG. 4
[7] = oral dose of 25 mg/kg and 50 mg/kg, FIG. 1
[8] = oral dose of 50 mg/kg and 100 mg/kg

O=C1C[C@@H](c2ccc(O)cc2)Oc2cc(O)ccc21 [LQ, liquiritigenin]
Hepatic cell degeneration (HD) Central Vein (CV) ([1]; APAP + BSO, 15 mg/kg,i.v.): 0.2 ± 0.2
Hepatic cell degeneration (HD) Limbic region ([1]; APAP + BSO, 15 mg/kg,i.v.): 2 ± 0.03
Hepatic cell degeneration (HD) Middle Region ([1]; APAP + BSO, 15 mg/kg,i.v.): 0.2 ± 0.2
Hepatic cell degeneration (HD) Central Vein (CV) ([1]; APAP + BSO, 50 mg/kg, p.o): 1.5 ± 0.5
Hepatic cell degeneration (HD) Limbic region ([1]; APAP + BSO, 50 mg/kg, p.o): 1.5 ± 0.5
Hepatic cell degeneration (HD) Middle Region ([1]; APAP + BSO, 50 mg/kg, p.o): 1.5 ± 0.5
Inflammatory cell ([1]; APAP + BSO, 50 mg/kg, p.o): 0
survival rate ([1]; GSH-depleted (BSO) + acetaminophen, versus 26.7% without treatment): strikingly increased
hepatic injury ([1]; intravenously administrated for 2 days, GSH-depleted, FIG. 6b): apparently inhibits
necrosis of hepatic cell [1, 5]: strikingly reduced
Central vein neighboring cell necrosis (N) ([2]; APAP, 5 mg/kg, i. v): 0.2 ± 0.2
Hepatic cell degeneration (HD) Central Vein (CV) ([2]; APAP, 5 mg/kg, i. v): 0.8 ± 0.4
Hepatic cell degeneration (HD) Limbic region ([2]; APAP, 5 mg/kg, i. v): 0
Hepatic cell degeneration (HD) Middle Region ([2]; APAP, 5 mg/kg, i. v): 0.6 ± 0.4
Inflammatory cell ([2]; APAP, 5 mg/kg, i. v): 0
increased activity of blood ALT induced by acetaminophen [2, 6]: significantly reduced
increased activity of blood LDH induced by acetaminophen [2, 6]: significantly reduced
central necrosis and inflammation of liver ([2]; intravenously administrated, FIG. 5): strikingly reduced
necrosis of hepatic cell [3]: more strikingly inhibited
Central vein neighboring cell necrosis (N) ([4]; APAP, 50 mg/kg, p.o, n = 10): 0.8 ± 0.8
Hepatic cell degeneration (HD) Central Vein (CV) ([4]; APAP, 50 mg/kg, p.o, n = 10): 0.8 ± 0.8
Hepatic cell degeneration (HD) Limbic region ([4]; APAP, 50 mg/kg, p.o, n = 10): 0.2 ± 0.2
Hepatic cell degeneration (HD) Middle Region ([4]; APAP, 50 mg/kg, p.o, n = 10): 0.6 ± 0.6
Inflammatory cell ([4]; APAP, 50 mg/kg, p.o, n = 10): 0^##
increased activity of blood ALT induced by acetaminophen [4, 7]: significantly reduced
increased activity of blood LDH induced by acetaminophen [4, 7]: significantly reduced
central necrosis and inflammation of liver (histo-pathological examination) [4]: strikingly reduced

COC(=O)c1cc(OC)c2c(c1-c1c(C(=O)OC)cc(OC)c3c1OCO3)OCO2 [DDB, dimethyl-4,4′-dimethoxy-5,6,5′,6′-dimethylene dioxybiphenyl-2,2′-dicarboxylate]
necrosis of hepatic cell [1, 5]: could not reduce
Central vein neighboring cell necrosis (N) ([4]; APAP, 50 mg/kg, p.o, n = 10): 2.38 ± 0.5^
Hepatic cell degeneration (HD) Central Vein (CV) ([4]; APAP, 50 mg/kg, p.o, n = 10): 0.4 ± 0.2
Hepatic cell degeneration (HD) Limbic region ([4]; APAP, 50 mg/kg, p.o, n = 10): 0
Hepatic cell degeneration (HD) Middle Region ([4]; APAP, 50 mg/kg, p.o, n = 10): 0.2 ± 0.2
Inflammatory cell ([4]; APAP, 50 mg/kg, p.o, n = 10): 0^##
Survival ratio (%) ([4]; APAP, 50 mg/kg, p.o, n = 10): 100%
increased activity of blood ALT induced by acetaminophen [4, 8]: strikingly reduce
increased activity of blood LDH induced by acetaminophen [4, 8]: strikingly reduce
central necrosis and inflammation of liver (histo-pathological examination) [4]: reduced little
